According to patent US11998537B2, “Substituted indole dimer compounds” (BRISTOL-MYERS SQUIBB COMPANY, priority 2018, dated 2024):

Assays:
Type in all cases: cell-based
human TLR9 = molecular target: T1, human TLR9 (Homo sapiens, UniProt Q9NR96); test: TLR9 inhibition reporter assay (HEK-Blue SEAP); conditions: HEK-Blue cells overexpressing human TLR9, ODN2006 5 nM, 22 hour incubation
T1 construct: host or cells: HEK-Blue cells (HEK293-derived reporter line)
T1 sequence (Q9NR96 26-1032): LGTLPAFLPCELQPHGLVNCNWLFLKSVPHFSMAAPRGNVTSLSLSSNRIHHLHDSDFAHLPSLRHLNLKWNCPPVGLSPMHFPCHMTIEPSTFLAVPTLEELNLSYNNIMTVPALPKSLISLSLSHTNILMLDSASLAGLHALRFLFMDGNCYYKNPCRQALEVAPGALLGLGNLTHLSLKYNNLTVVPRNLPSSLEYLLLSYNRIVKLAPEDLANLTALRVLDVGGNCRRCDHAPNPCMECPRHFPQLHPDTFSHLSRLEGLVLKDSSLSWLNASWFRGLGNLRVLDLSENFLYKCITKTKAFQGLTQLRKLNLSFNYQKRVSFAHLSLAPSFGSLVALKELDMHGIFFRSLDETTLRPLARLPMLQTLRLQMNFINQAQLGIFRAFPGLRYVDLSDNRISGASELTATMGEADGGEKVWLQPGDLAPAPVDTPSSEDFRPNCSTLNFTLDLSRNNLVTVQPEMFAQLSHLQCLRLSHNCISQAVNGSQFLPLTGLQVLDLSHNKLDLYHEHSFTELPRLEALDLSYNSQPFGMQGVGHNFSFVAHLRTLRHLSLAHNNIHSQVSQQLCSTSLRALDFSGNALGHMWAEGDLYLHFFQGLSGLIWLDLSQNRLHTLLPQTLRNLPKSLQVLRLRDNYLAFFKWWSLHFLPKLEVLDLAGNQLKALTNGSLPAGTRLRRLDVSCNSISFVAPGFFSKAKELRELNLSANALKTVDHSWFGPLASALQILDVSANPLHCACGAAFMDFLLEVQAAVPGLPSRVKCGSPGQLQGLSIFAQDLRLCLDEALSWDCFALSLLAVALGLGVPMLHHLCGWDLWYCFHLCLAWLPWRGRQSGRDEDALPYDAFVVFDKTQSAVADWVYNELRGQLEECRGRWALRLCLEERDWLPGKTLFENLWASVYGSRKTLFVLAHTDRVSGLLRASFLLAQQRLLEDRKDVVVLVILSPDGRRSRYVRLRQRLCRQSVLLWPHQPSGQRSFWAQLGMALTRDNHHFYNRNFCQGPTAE
Protocol: (§1) TLR7/8/9 Inhibition Reporter Assays
(§2) HEK-Blue™-cells (Invivogen) overexpressing human TLR7, TLR8 or TLR9 receptors were used for screening inhibitors of these receptors using an inducible SEAP (secreted embryonic alkaline phosphatase) reporter gene under the control of the IFN-β minimal promoter fused to five NF-κB and AP-1-binding sites. Briefly, cells are seeded into Greiner 384 well plates (15000 cells per well for TLR7, 20,000 for TLR8 and 25,000 for TLR9) and then treated with test compounds in DMSO to yield a final dose response concentration range of 0.05 nM-50 μM. After a 30 minute compound pre-treatment at room temperature, the cells are then stimulated with a TLR7 ligand (gardiquimod at a final concentration of 7.5 μM), TLR8 ligand (R848 at a final concentration of 15.9 μM) or TLR9 ligand (ODN2006 at a final concentration of 5 nM) to activate NF-κB and AP-1 which induce the production of SEAP. After a 22 hour incubation at 37° C., 5% CO2, SEAP levels are determined with the addition of HEK-Blue™ Detection reagent (Invivogen), a cell culture medium that allows for detection of SEAP, according to manufacturer's specifications. The percent inhibition is determined as the % reduction in the HEK-Blue signal present in wells treated with agonist plus DMSO alone compared to wells treated with a known inhibitor.

human TLR8 = molecular target: T2, human TLR8 (Homo sapiens, UniProt Q9NR97); test: TLR8 inhibition reporter assay (HEK-Blue SEAP); conditions: HEK-Blue cells overexpressing human TLR8, R848 15.9 μM, 22 hour incubation
T2 construct: host or cells: HEK-Blue cells (HEK293-derived reporter line)
T2 sequence (Q9NR97 27-1041): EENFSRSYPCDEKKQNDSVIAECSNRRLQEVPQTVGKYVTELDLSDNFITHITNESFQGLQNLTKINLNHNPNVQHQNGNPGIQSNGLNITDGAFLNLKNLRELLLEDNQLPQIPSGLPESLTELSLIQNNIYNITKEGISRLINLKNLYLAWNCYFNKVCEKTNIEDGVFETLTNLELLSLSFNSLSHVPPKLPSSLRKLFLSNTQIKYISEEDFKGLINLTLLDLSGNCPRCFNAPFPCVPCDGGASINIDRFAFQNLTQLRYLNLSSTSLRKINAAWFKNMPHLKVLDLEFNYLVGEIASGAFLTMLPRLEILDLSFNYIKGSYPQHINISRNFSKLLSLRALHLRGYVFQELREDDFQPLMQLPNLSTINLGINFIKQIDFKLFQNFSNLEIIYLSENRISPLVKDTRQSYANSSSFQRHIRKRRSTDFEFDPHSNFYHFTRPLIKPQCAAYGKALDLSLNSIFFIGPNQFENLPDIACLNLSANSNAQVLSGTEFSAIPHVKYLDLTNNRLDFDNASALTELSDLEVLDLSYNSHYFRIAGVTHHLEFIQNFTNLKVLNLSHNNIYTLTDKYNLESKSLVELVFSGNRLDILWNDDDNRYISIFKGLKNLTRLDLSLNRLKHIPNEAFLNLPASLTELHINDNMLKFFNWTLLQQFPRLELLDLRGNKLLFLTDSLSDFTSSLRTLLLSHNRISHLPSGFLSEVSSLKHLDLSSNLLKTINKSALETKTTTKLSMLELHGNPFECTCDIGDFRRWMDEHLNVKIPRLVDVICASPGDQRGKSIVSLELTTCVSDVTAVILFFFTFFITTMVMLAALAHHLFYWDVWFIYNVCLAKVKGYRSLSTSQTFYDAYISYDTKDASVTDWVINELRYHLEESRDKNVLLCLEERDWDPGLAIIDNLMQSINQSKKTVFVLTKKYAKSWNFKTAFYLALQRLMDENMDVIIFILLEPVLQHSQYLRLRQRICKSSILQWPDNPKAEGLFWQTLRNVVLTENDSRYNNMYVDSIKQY
Protocol: as §1, §2

human TLR7 = molecular target: T3, human TLR7 (Homo sapiens, UniProt Q9NYK1); test: TLR7 inhibition reporter assay (HEK-Blue SEAP); conditions: HEK-Blue cells overexpressing human TLR7, gardiquimod 7.5 μM, 22 hour incubation
T3 construct: host or cells: HEK-Blue cells (HEK293-derived reporter line)
T3 sequence (Q9NYK1 27-1049): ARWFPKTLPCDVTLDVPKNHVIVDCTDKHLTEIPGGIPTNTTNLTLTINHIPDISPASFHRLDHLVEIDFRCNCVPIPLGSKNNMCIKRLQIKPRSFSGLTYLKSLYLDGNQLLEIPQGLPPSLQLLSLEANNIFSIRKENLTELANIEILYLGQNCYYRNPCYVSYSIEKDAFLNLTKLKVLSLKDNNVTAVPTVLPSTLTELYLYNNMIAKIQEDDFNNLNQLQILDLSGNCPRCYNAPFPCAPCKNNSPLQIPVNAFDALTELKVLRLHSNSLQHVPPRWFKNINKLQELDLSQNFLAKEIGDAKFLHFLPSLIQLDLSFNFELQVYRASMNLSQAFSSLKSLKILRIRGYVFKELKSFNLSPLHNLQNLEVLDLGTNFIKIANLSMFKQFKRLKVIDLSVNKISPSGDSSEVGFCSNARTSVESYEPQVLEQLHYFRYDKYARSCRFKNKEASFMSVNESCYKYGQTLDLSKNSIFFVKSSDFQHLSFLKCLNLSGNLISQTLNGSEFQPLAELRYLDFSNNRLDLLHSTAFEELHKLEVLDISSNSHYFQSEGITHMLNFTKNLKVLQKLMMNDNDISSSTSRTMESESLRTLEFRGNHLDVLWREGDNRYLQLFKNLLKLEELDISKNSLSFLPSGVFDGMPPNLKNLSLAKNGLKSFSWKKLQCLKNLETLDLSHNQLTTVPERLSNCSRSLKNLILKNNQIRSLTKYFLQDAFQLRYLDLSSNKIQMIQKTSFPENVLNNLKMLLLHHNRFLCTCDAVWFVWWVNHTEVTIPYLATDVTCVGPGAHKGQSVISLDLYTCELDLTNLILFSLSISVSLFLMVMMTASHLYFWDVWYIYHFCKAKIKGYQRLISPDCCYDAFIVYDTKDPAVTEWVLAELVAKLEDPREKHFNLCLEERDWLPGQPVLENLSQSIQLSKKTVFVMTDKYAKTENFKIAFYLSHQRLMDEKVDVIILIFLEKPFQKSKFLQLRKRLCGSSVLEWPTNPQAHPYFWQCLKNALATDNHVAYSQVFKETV
Protocol: as §1, §2

| Structure (SMILES) | IC50 (human TLR9) [nM] | IC50 (human TLR8) [nM] | IC50 (human TLR7) [nM] |
| --- | --- | --- | --- |
| COc1cc(-c2[nH]c3ccc(C4CCN(CCNC(=O)CCCCCCCCCC(=O)NCCN5CCC(c6ccc7[nH]c(-c8cc(OC)c9ncnn9c8)c(C(C)C)c7c6)CC5)CC4)cc3c2C(C)C)cn2ncnc12 [Example 4, N1,N11-bis(2-(4-(3-isopropyl-2-(8-methoxy-[1,2,4]triazolo[1,5-a]pyridin-6-yl)-1H-indol-5-yl)piperidin-1-yl)ethyl)undecanediamide] | 94 | 0.22 | 0.25 |
| COc1cc(-c2[nH]c3ccc(C4CCN(CCNC(=O)CCCCCCCCC(=O)NCCN5CCC(c6ccc7[nH]c(-c8cc(OC)c9ncnn9c8)c(C(C)C)c7c6)CC5)CC4)cc3c2C(C)C)cn2ncnc12 [Example 7, N1,N10-bis(2-(4-(3-isopropyl-2-(8-methoxy-[1,2,4]triazolo[1,5-a]pyridin-6-yl)-1H-indol-5-yl)piperidin-1-yl)ethyl)decanediamide] | 98 | 0.24 | 0.14 |
| COc1cc(-c2[nH]c3ccc(C4CCN(CCNC(=O)CCCCCCCC(=O)NCCN5CCC(c6ccc7[nH]c(-c8cc(OC)c9ncnn9c8)c(C(C)C)c7c6)CC5)CC4)cc3c2C(C)C)cn2ncnc12 [Example 5, N1,N9-bis(2-(4-(3-isopropyl-2-(8-methoxy-[1,2,4]triazolo[1,5-a]pyridin-6-yl)-1H-indol-5-yl)piperidin-1-yl)ethyl)nonanediamide] | 140 | 0.18 | 0.15 |
| COc1cc(-c2[nH]c3ccc(C4CCN(CCNC(=O)CCCCCCC(=O)NCCN5CCC(c6ccc7[nH]c(-c8cc(OC)c9ncnn9c8)c(C(C)C)c7c6)CC5)CC4)cc3c2C(C)C)cn2ncnc12 [Example 6, N1,N8-bis(2-(4-(3-isopropyl-2-(8-methoxy-[1,2,4]triazolo[1,5-a]pyridin-6-yl)-1H-indol-5-yl)piperidin-1-yl)ethyl)octanediamide] | 148 | 0.2 | 0.17 |
| COc1cc(-c2[nH]c3ccc(C4CCN(CCNC(=O)CCCCCCCCCCCCC(=O)NCCN5CCC(c6ccc7[nH]c(-c8cc(OC)c9ncnn9c8)c(C(C)C)c7c6)CC5)CC4)cc3c2C(C)C)cn2ncnc12 [Example 2, N1,N14-bis(2-(4-(3-isopropyl-2-(8-methoxy-[1,2,4]triazolo[1,5-a]pyridin-6-yl)-1H-indol-5-yl)piperidin-1-yl)ethyl)tetradecanediamide] | 149 | 1.6 | 1.9 |
| COc1cc(-c2[nH]c3ccc(C4CCN(CCNC(C)=O)CC4)cc3c2C(C)C)cn2ncnc12 [Comparator Compound C5, N-(2-(4-(3-isopropyl-2-(8-methoxy-[1,2,4]triazolo[1,5-a]pyridin-6-yl)-1H-indol-5-yl)piperidin-1-yl)ethyl)acetamide, reference compound] | 3570 | 1.8 | 0.95 |
